“And” between values parts separate entries of the source, which are not always exact repeats. Identical values can stand only once.
Tests used:
[1] = system: clotting enzyme activation (D-dimers); test: D-dimer test (DimerTest latex agglutination) for cryptic activation in citrated plasma; format: biochemical
Protocol: The samples were divided into four 1 ml aliquots. To three of the sample aliquots, sufficient concentrated citrate solution was added to achieve 1%, 1.5% or 2% weight/volume citrate, respectively, while the fourth aliquot acted as the control.
As a “worst case” scenario to detect activation, the aliquots were incubated at 21° C. for a maximum of ten days. Each aliquot was assayed daily for the presence of D-dimers using the DimerTest latex agglutination assay (American Diagnostica, Stamford, Conn.). The results are shown in Table 1 where the number of days to observable D-dimers is listed for each aliquot. […] At day six of incubation, 41.2% (14) of the control aliquots were positive for the presence of D-dimers. By day seven, 100% (34) of the normal citrate (0.4%) aliquots were positive for D-dimers.

clot formation = test: Clotting times (PT, PTT) of anticoagulated whole blood; format: biochemical
Protocol: (§1) In this experiment whole blood (an aliquot of which clotted within 10 minutes without anticoagulant) was modified by adding a number of different anticoagulant compositions. Sodium citrate was used as an anticoagulant at 0.65%, 0.75% and 0.9% by weight. These are all higher citrate levels than the usual 0.4% by weight. Amino acid citrates (lysine or arginine) were used at 0.65%, 0.75% and 0.9% by weight based on the weight of the citric acid. The amino acid counterion was used in sufficient quantity to adjust the pH as explained above.

red blood cells = test: Red blood cell integrity during storage at 4° C.; format: cell-based; design: MCV Day 20 / MCV Day 33: unit not given here; details: for RBC Day 1: whole blood; for MCV Day 20 / MCV Day 33: whole blood stored at 4° C.
Protocol: as §1
To judge red cell condition the blood was counted and various other measurements were taken initially and after 20 and 33 days of storage at 4° C. Apparent initial/differences in RBC counts are due to dilution caused by adding extra anticoagulant. Mean cell volume (MCV) is a red cell index that is a useful measure of red cell health. […] It is believed that a citrate level of at least about 1.0% by weight (i.e., more than two times the usual amount) is necessary to ensure against all activation of plasma proteins. […] On the other hand, amino acid citrates, which are very effective anticoagulants, are also effective at preventing red cell damage.

## O=C(O)CC(O)(CC(=O)O)C(=O)O [Citrate]
[1]; 0.4% Citrate, plasma at 21° C., maximum ten days
  number of days to observable D-dimers: 6 days and 7 days and 5 days
[1]; 0.4% citrate control aliquots, day six of incubation
  aliquots positive for the presence of D-dimers: 41.2%
[1]; 0.4% citrate, by day seven
  aliquots positive for D-dimers: 100%
[1]; additional citrate (1%, 1.5%, 2%)
  aliquots that showed D-dimers by day ten: None

## N=C(N)NCCC[C@H](N)C(=O)O.O=C(O)CC(O)(CC(=O)O)C(=O)O [Arg Citrate, arginine citrate]
Clot formation; anticoagulant 0.65 wgt %
  PT (4 hrs at RT): 15.8 s
  PTT (4 hrs at RT): 36.8 s
Clot formation; anticoagulant 0.75 wgt %
  PT (4 hrs at RT): 20.2 s
  PTT (4 hrs at RT): 39.9 s
Clot formation; anticoagulant 0.90 wgt %
  PT (4 hrs at RT): 55 s
  PTT (4 hrs at RT): 56.8 s
Red blood cells; anticoagulant 0.65 wgt %
  RBC Day 1: 5.77 10^6/μl
  MCV Day 20: 93.1
  MCV Day 33: 93.5
Red blood cells; anticoagulant 0.75 wgt %
  RBC Day 1: 6.45 10^6/μl
  MCV Day 20: 92.6
  MCV Day 33: 93.6
Red blood cells; anticoagulant 0.90 wgt %
  RBC Day 1: 6.77 10^6/μl
  MCV Day 20: 91.5
  MCV Day 33: 92.4

Reference: patent publication US20090123907A1 (priority 2004, published 2009)
